Key:
[1] = target: T1, RORγt (Homo sapiens, UniProt P51449); assay: Cofactor recruitment test (Alpha Screen, biotinylated SRC-1 peptide); format: biochemical; settings: test compound 1 μM; for inhibition at 1 µM: read-out: signal value inhibitory rate (%)
T1 sequence (P51449 1-497 isoform P51449-2): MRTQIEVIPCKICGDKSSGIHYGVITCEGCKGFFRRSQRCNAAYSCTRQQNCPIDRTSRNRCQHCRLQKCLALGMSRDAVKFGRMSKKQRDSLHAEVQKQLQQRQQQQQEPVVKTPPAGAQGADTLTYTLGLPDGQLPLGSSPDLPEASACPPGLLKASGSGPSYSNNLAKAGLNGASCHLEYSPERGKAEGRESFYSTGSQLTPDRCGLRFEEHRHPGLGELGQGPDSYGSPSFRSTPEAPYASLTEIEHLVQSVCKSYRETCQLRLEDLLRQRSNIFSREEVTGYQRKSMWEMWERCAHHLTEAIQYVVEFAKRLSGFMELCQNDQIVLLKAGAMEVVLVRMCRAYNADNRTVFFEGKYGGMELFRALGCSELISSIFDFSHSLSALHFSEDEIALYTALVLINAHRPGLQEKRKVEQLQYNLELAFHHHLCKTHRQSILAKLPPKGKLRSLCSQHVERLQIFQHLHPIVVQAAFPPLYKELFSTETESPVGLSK
Method: Cofactor Recruitment Test
Cofactor recruitment test was performed by Alpha Screen (Histidine Detection Kit, PerkinElmer) method. First, a test compound diluted with an assay buffer (50 mM Tris-HCl (pH 7.5), 50 mM KCl, 1 mM DTT, 0.1% BSA) was added to a 384 well plate by 5 μL each. […] The mixture was stood in a dark place for 1 hr, and the signal value was measured by Envision (PerkinElmer).

[2] = target: T1, RORγt; assay: Jurkat reporter test (IL-17 ROR response element luciferase); format: cell-based; parameters: expressed in transfected cells; host or cells: Jurkat cells; settings: test compound 3 μM, Jurkat cells; for inhibition at 3 µM: Jurkat, read-out: luminescence level inhibitory rate (%)
Method: The Jurkat cells used for the reporter test were cultured in a culture medium (RPMI (Invitrogen), 10% FCS (AusGeneX), 100 U/mL penicillin, 100 μg/mL streptomycin). On the day of the test, 4×10^7 cells were recovered by a centrifugal operation (1000 rpm, 5 min.) and suspended in PBS (phosphate buffered saline) (Invitrogen). Thereafter, the cells were recovered again by a centrifugal operation, and suspended in 2 mL of R buffer (NEON transfection kit, Invitrogen). […] Gene transfer was performed by Electroporation apparatus (NEON, Invitrogen) under the conditions of pulse voltage 1350 V, interval 10 milliseconds, number of times 3. The cells after gene transfer were suspended in 40 mL of a reaction medium (RPMI, 10% Lipid reduced FCS (HyClone), 10 mM HEPES (pH 7.5), 100 U/mL penicillin, 100 μg/mL streptomycin, 5 μM lovastatin), and plated in a 96 well plate by 90 μL each. A test compound diluted with the reaction medium was added by 10 μL each, and the cells were cultured overnight in an incubator. Bright-Glo (Promega) was added by 100 μL each, and the mixture was stirred at room temperature for 10 min, and the luminescence level was measured by Envision (PerkinElmer).

[3] = target: T1, RORγt; assay: RORγt binding test (TR-FRET, fluorescent-labeled cholesterol); settings: binding inhibitory rate of fluorescent-labeled cholesterol to RORγt at test compound 1 μM
Method: The binding activity of the test compound to RORγt was measured by a time resolved fluorescence resonance energy transfer method (TR-FRET) utilizing histidine-tagged RORγt, fluorescent-labeled cholesterol (BODIPY-cholesterol, AVIVA) and terbium-labeled anti-histidine tag antibody (Invitrogen). First, a test compound diluted with an assay buffer (20 mM Tris-HCl (pH 7.5), 100 mM NaCl, 1 mM DTT, 0.1% BSA) was added to a 384 well plate by 3 μL each. Then, RORγt diluted with an assay buffer to 240 nM was added by 3 μL each, after which fluorescent-labeled cholesterol diluted with the assay buffer to 12 μM was added by 3 μL each, and the mixture was stood at room temperature for 20 min. Thereafter, a terbium-labeled anti-histidine tag antibody diluted with the assay buffer to 8 nM was added by 3 μL each. The mixture was stood at room temperature for 20 min, and fluorescence intensity (excitation wavelength 320 nm, fluorescence wavelength 520 nm, delay time 100 microseconds) was measured by Envision (PerkinElmer).

CCn1c(=O)c2cc(NC(=O)CC(C)CC(=O)Nc3ccc(C#N)c(Cl)c3)ccc2n(C[Si](C)(C)C)c1=O (centres unmarked) [Example 126, N-(3-chloro-4-cyanophenyl)-N′-(3-ethyl-2,4-dioxo-1-((trimethylsilyl)methyl)-1,2,3,4-tetrahydroquinazolin-6-yl)-3-methylpentanediamide]
inhibition at 1 µM [1]: 100% | inhibition at 3 µM [2]: 102% | inhibition at 1 µM [3]: 103%

CCn1c(=O)c2cc(NC(=O)CC(C)CC(=O)Nc3ccc(C#N)c(Cl)c3)cc(F)c2n(CC)c1=O (centres unmarked) [Example 129, N-(3-chloro-4-cyanophenyl)-N′-(1,3-diethyl-8-fluoro-2,4-dioxo-1,2,3,4-tetrahydroquinazolin-6-yl)-3-methylpentanediamide]
inhibition at 1 µM [1]: 100% | inhibition at 3 µM [2]: 102% | inhibition at 1 µM [3]: 100%

CCn1c(=O)n(CC2CC2)c(=O)c2cc(NC(=O)CC[C@@H](O)C(=O)Nc3ccc(C#N)c(Cl)c3)ccc21 [Example 138, (2R)—N^1-(3-chloro-4-cyanophenyl)-N^5-(3-(cyclopropylmethyl)-1-ethyl-2,4-dioxo-1,2,3,4-tetrahydroquinazolin-6-yl)-2-hydroxypentanediamide]
inhibition at 1 µM [1]: 100% | inhibition at 3 µM [2]: 104% | inhibition at 1 µM [3]: 104%

CCN1Cc2cc(NC(=O)CC(C)CC(=O)Nc3ccc(C#N)c(Cl)c3)ccc2N(CC)C1=O (centres unmarked) [Example 16, N-(3-chloro-4-cyanophenyl)-N′-(1,3-diethyl-2-oxo-1,2,3,4-tetrahydroquinazolin-6-yl)-3-methylpentanediamide]
inhibition at 1 µM [1]: 104% | inhibition at 3 µM [2]: 117% | inhibition at 1 µM [3]: 92.8%

CCn1c(=O)n(CSC)c(=O)c2cc(NC(=O)CC(C)CC(=O)Nc3ccc(C#N)c(Cl)c3)ccc21 (centres unmarked) [Example 65, N-(3-chloro-4-cyanophenyl)-N′-(1-ethyl-3-((methylsulfanyl)methyl)-2,4-dioxo-1,2,3,4-tetrahydroquinazolin-6-yl)-3-methylpentanediamide]
inhibition at 1 µM [1]: 102% | inhibition at 3 µM [2]: 102% | inhibition at 1 µM [3]: 100%

CC(C)n1c(=O)n(CC2CC2)c(=O)c2cc(NC(=O)CC(C)(O)CC(=O)Nc3ccc(C#N)c(Cl)c3)ccc21 (centres unmarked) [Example 142, N-(3-chloro-4-cyanophenyl)-N′-(3-(cyclopropylmethyl)-1-isopropyl-2,4-dioxo-1,2,3,4-tetrahydroquinazolin-6-yl)-3-hydroxy-3-methylpentanediamide]
inhibition at 1 µM [1]: 103% | inhibition at 3 µM [2]: 103%

CCn1c(=O)n(CCCOC)c(=O)c2cc(NC(=O)CC(C)CC(=O)Nc3ccc(C#N)c(Cl)c3)ccc21 (centres unmarked) [Example 21, N-(3-chloro-4-cyanophenyl)-N′-(1-ethyl-3-(3-methoxypropyl)-2,4-dioxo-1,2,3,4-tetrahydroquinazolin-6-yl)-3-methylpentanediamide]
inhibition at 1 µM [1]: 104% | inhibition at 3 µM [2]: 118% | inhibition at 1 µM [3]: 103%

CC(CC(=O)Nc1ccc(C#N)c(Cl)c1)CC(=O)Nc1cc2c(=O)n(CC3CC3)c(=O)n(CC3CC3)c2cn1 (centres unmarked) [Example 113, N-(1,3-bis(cyclopropylmethyl)-2,4-dioxo-1,2,3,4-tetrahydropyrido[3,4-d]pyrimidin-6-yl)-N′-(3-chloro-4-cyanophenyl)-3-methylpentanediamide]
inhibition at 1 µM [1]: 102% | inhibition at 3 µM [2]: 96.5% | inhibition at 1 µM [3]: 103%

CCn1c(=O)c2cc(NC(=O)CC(C)CC(=O)Nc3ccc(C#N)c(Cl)c3)ncc2n(CC)c1=O (centres unmarked) [Example 124, N-(3-chloro-4-cyanophenyl)-N′-(1,3-diethyl-2,4-dioxo-1,2,3,4-tetrahydropyrido[3,4-d]pyrimidin-6-yl)-3-methylpentanediamide]
inhibition at 1 µM [1]: 101% | inhibition at 3 µM [2]: 100%

CCn1c(=O)c2cc(NC(=O)CC(C)CC(=O)Nc3ccc(C#N)c(Cl)c3)c(F)cc2n(CC)c1=O (centres unmarked) [Example 130, N-(3-chloro-4-cyanophenyl)-N′-(1,3-diethyl-7-fluoro-2,4-dioxo-1,2,3,4-tetrahydroquinazolin-6-yl)-3-methylpentanediamide]
inhibition at 1 µM [1]: 102% | inhibition at 3 µM [2]: 101% | inhibition at 1 µM [3]: 101%

CCn1c(=O)c2cc(NC(=O)CC(C)CC(=O)Nc3ccc(C#N)c(Cl)c3)ccc2n(CSC)c1=O (centres unmarked) [Example 99, N-(3-chloro-4-cyanophenyl)-N′-(3-ethyl-1-((methylsulfanyl)methyl)-2,4-dioxo-1,2,3,4-tetrahydroquinazolin-6-yl)-3-methylpentanediamide]
inhibition at 1 µM [1]: 103% | inhibition at 3 µM [2]: 102% | inhibition at 1 µM [3]: 95.6%

CCn1c(=O)c2cc(C(=O)NCC(CC(=O)Nc3ccc(C#N)c(Cl)c3)C(C)C)ccc2n(CC)c1=O (centres unmarked) [Example 35, N-(4-((3-chloro-4-cyanophenyl)amino)-2-isopropyl-4-oxobutyl)-1,3-diethyl-2,4-dioxo-1,2,3,4-tetrahydroquinazoline-6-carboxamide]
signal value inhibitory rate (%) ([1]; 1 µM): 105.0% | luminescence level inhibitory rate (%) ([2]; 3 µM): 122.0% | binding inhibitory rate (%) ([3]; 1 µM): 102.0%

CCn1c(=O)n(CC2CC2)c(=O)c2cc(NC(=O)[C@@H](O)CCC(=O)Nc3ccc(C#N)c(Cl)c3)ccc21 [Example 141, (2S)—N^5-(3-chloro-4-cyanophenyl)-N^1-(3-(cyclopropylmethyl)-1-ethyl-2,4-dioxo-1,2,3,4-tetrahydroquinazolin-6-yl)-2-hydroxypentanediamide]
inhibition at 1 µM [1]: 102% | inhibition at 3 µM [2]: 103% | inhibition at 1 µM [3]: 102%

CC(CC(=O)Nc1ccc(C#N)c(Cl)c1)CC(=O)Nc1ccc2c(c1)C(=O)N(CC1CC1)C(=O)C21CCCC1 (centres unmarked) [Example 145, N-(3-chloro-4-cyanophenyl)-N′-(2′-(cyclopropylmethyl)-1′,3′-dioxo-2′,3′-dihydro-1′H-spiro[cyclopentane-1,4′-isoquinoline]-7′-yl)-3-methylpentanediamide]
inhibition at 1 µM [1]: 103% | inhibition at 3 µM [2]: 103%

CCn1c(=O)n(CC2CC2)c(=O)c2cc(NC(=O)CC[C@H](O)C(=O)Nc3ccc(C#N)c(Cl)c3)ccc21 [Example 139, (2S)—N^1-(3-chloro-4-cyanophenyl)-N^5-(3-(cyclopropylmethyl)-1-ethyl-2,4-dioxo-1,2,3,4-tetrahydroquinazolin-6-yl)-2-hydroxypentanediamide]
inhibition at 1 µM [1]: 102% | inhibition at 3 µM [2]: 104% | inhibition at 1 µM [3]: 102%

CCn1c(=O)n(COC)c(=O)c2cc(NC(=O)CC(C)CC(=O)Nc3ccc(C#N)c(Cl)c3)ccc21 (centres unmarked) [Example 19, N-(3-chloro-4-cyanophenyl)-N′-(1-ethyl-3-(methoxymethyl)-2,4-dioxo-1,2,3,4-tetrahydroquinazolin-6-yl)-3-methylpentanediamide]
inhibition at 1 µM [1]: 104% | inhibition at 3 µM [2]: 115% | inhibition at 1 µM [3]: 99.6%

CC(CC(=O)Nc1ccc(C#N)c(Cl)c1)CC(=O)Nc1ccc2c(c1)c(=O)n(CC1CC1)c(=O)n2C(C)C (centres unmarked) [Example 144, N-(3-chloro-4-cyanophenyl)-N′-(3-(cyclopropylmethyl)-1-isopropyl-2,4-dioxo-1,2,3,4-tetrahydroquinazolin-6-yl)-3-methylpentanediamide]
inhibition at 1 µM [1]: 102% | inhibition at 3 µM [2]: 103%
